Test system: ovoalbumin-sensitized guinea-pig isolated tracheal rings
Assay: Inhibition of antigen (ovoalbumin)-induced contraction in ovoalbumin-sensitized guinea-pig isolated tracheal rings (organ bath)
Experimental: Male Dunkin-Hartley guinea-pigs (weighing 380-420 g) from Harlan Ibérica (St. Feliu de Codines, Spain) are used. They are housed, with free access to food and water, in rooms kept at 22±2° C. under a 12 hours light-dark cycle until the start of the experiment.
The animals are sensitised by means of two sessions of aerosolization with a solution of 5 mg/ml of ovoalbumin on days zero and 7 of the study. The aerosolization procedure consists of two 30-s nebulisations (Efbe air brush apparatus) with an interval of 5 minutes with animals maintained in a plexiglass box for 10 minutes since the beginning of the procedure.
Between days 14 to 20 from the beginning of the experiment the animals are euthanised and the tracheal tissue is removed. A single tracheal ring is excised and suspended in an organ bath containing Krebs solution. Once attached to a force isometric transducer, it is submitted to a basal resting tension of 1 g, equilibrated with a mixture a 5% CO2 in O2 and maintained at 37° C.
The preparations are allowed to equilibrate for a period of not less than 60 minutes and then the vehicle or the compound(s) to be tested are added to the bath. […] At this moment ovoalbumin is added (at a final concentration in the bath of 10 μg/ml) to elicit the contractile response which is measured immediately.
The contractile responses measured with a force isometric transducer are expressed in mg.

Compound: C[C@H]1C[C@H]2[C@@H]3CCC4=CC(=O)C=C[C@]4(C)[C@@]3(Cl)[C@@H](O)C[C@]2(C)[C@@]1(O)C(=O)CO [BECLOMETHASONE, beclomethasone]
- % INHIBITION OF THE CONTRACTILE RESPONSE (each compound 10 μM in bath, ovoalbumin 10 μg/ml, relative to vehicle): 12%
- inhibition of the contractile response to antigen, comparison in words (ovoalbumin-sensitized guinea-pig tracheal rings, summary of Table 1 and FIG. 1): smaller effect

Source: patent publication US20110021477A1, “COMBINATIONS COMPRISING […] AGENTS AND CORTICOSTERIODS” (priority 2004, published 2011)
